Values joined by “and” are separate entries in the source; they are usually repeats but may differ in a detail not shown here. Equal entries are not always repeated. Where two headings read alike, the source gives them in different places.
Columns and labels:
pBR322 plasmid [1] = details: cited from earlier work; for DNA-binding activity expressed as % decrease of fluorescence: previous study
recombinant human DHFR [2] = target: T1, recombinant human DHFR (Homo sapiens, UniProt P00374); set-up: method as in PMID 31892256; details: previously synthesized TMP analogs A–F; cited from earlier work
T1 construct: purchased
T1 sequence (P00374 1-187): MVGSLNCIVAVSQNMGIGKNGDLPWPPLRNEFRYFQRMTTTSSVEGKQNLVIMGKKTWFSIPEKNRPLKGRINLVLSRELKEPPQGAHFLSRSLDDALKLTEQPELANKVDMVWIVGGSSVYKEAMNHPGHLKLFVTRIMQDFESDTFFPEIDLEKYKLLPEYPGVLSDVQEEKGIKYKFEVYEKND

recombinant human DHFR [3] = target: T1, recombinant human DHFR; assay: Dihydrofolate reductase (DHFR) inhibition assay; assay type: biochemical; details: assay kit
[4] = system: poly(dG-dC)2 (DNA, polymer) GC; assay: ethidium bromide displacement, fluorescence; details: apparent; room temperature; ethidium bromide displaced; compound 10, 50, 100 µM
poly(dA-dT)2 [5] = assay: Ethidium displacement assay, apparent binding constant, poly(dA-dT)2; details: apparent association constant, ± 0.2 × 10^5 M^−1
Method: (§1) The fluorescence of DNA solutions (calf thymus DNA, T4 coliphage DNA, poly(dA-dT)2 and poly(dG-dC)2 with the investigated compound (final concentrations 10, 50, 100 μM) was measured by fluorescence spectrophotometer Infinite M200 TECAN at room temperature according to the procedure described above. The determination of DNA-binding constants was described in previous articles. The apparent binding constant was calculated from KEtBr [EtBr] = Kapp [drug], where [drug] = the concentration of the tested compound at 50% reduction of fluorescence and KEtBr and [EtBr] are known. The results are reported as a percentage of fluorescence decreases in Table 1.

pBR322 plasmid [6] = assay: Ethidium bromide assay, DNA-binding effect on plasmid pBR322; details: % fluorescence relative to controls
From the text: Fluorescence readings are reported as % fluorescence relative to the controls.

[7] = system: poly(dA-dT)2 (DNA, polymer) AT; assay: ethidium bromide displacement, fluorescence; details: apparent; room temperature; ethidium bromide displaced; compound 10, 50, 100 µM
T4 coliphage DNA [8] = assay: Ethidium displacement assay, apparent binding constant, T4 coliphage DNA; details: apparent association constant, ± 0.2 × 10^5 M^−1
From the text: The values of binding constants in the range of 0.7–6.4 × 10^5 M^−1 for T4 coliphage DNA for derivatives 1–18 was evidence of their minor-groove selectivity, because the major groove of T4 coliphage DNA is blocked by a-glycosylation of the 5-(hydroxymethyl)cytidine residues. […] All of the compounds bound to AT-rich sequences weaker than netropsin but some of them bound stronger to GC-rich sequences, e.g., compounds 3, 6, and 10.
as §1

poly(dG-dC)2 [9] = assay: Ethidium displacement assay, apparent binding constant, poly(dG-dC)2; details: apparent association constant, ± 0.2 × 10^5 M^−1
Method: as §1

calf thymus DNA [10] = assay: Ethidium displacement assay, apparent binding constant, calf thymus DNA; details: apparent association constant, ± 0.2 × 10^5 M^−1
Method: as §1

T4 coliphage DNA [11] = system: T4 coliphage DNA; set-up: method as in earlier work; details: reference values; KEtBr known (ref 25, 47); NT ref 48 (table row: ref 45); cited from earlier work
poly(dA-dT)2 [12] = system: poly(dA-dT)2; set-up: method as in earlier work; details: reference values; KEtBr known (ref 25, 47); NT ref 48 (table row: ref 45); cited from earlier work
calf thymus DNA [13] = system: calf thymus DNA; set-up: method as in earlier work; details: reference values; KEtBr known (ref 25, 47); NT ref 48 (table row: ref 45); cited from earlier work
poly(dG-dC)2 [14] = system: poly(dG-dC)2; set-up: method as in earlier work; details: reference values; KEtBr known (ref 25, 47); NT ref 48 (table row: ref 45); cited from earlier work

Row | Compound | DNA-binding activity expressed as % decrease of fluorescence (pBR322 plasmid [1]) | IC50 (recombinant human DHFR [2]) | IC50 (recombinant human DHFR [3]) | Kapp [4] | Kapp Poly (dA-dT)2 (poly(dA-dT)2 [5]) | Decrease of Fluorescence (pBR322 plasmid [6]) | Kapp [7] | Kapp T4 DNA (T4 coliphage DNA [8]) | Kapp poly (dG-dC)2 (poly(dG-dC)2 [9]) | Kapp Calf Thymus DNA (calf thymus DNA [10]) | Kapp T4 DNA (T4 coliphage DNA [11]) | Kapp Poly (dA-dT)2 (poly(dA-dT)2 [12]) | Kapp Calf Thymus DNA (calf thymus DNA [13]) | Kapp poly (dG-dC)2 (poly(dG-dC)2 [14]) | Decrease of Fluorescence (DNA-binding effect) (pBR322 plasmid [1]; pBR322 plasmid, same conditions, 48 (table row: ref 45))
1 | COc1ccc(CC(=O)Nc2cnc(N)nc2)c(OC)c1OC [B] | 45.18% | 0.99 µM |  |  |  |  |  |  |  |  |  |  |  |  | 
2 | COc1cc(CCC(=O)Nc2cnc(N)nc2)cc(OC)c1OC [C] | 69.92% |  |  |  |  |  |  |  |  |  |  |  |  |  | 
3 | COc1ccc(C(=O)Nc2ccc(N)nc2)cc1OC [Compound 8] |  |  | 10.59 ± 0.06 µM | 3.5 ± 0.2 × 10^5 M^−1 | 310000 M⁻¹ | 56.58% | 3.1 ± 0.2 × 10^5 M^−1 | 240000 M⁻¹ | 350000 M⁻¹ | 250000 M⁻¹ |  |  |  |  | 
4 | COc1cccc(C(=O)Nc2ccc(N)nc2)c1 [Compound 9] |  |  | 56.05 ± 0.08 µM | 1.5 ± 0.2 × 10^5 M^−1 | 390000 M⁻¹ | 64.89% | 3.9 ± 0.2 × 10^5 M^−1 | 120000 M⁻¹ | 150000 M⁻¹ | 390000 M⁻¹ |  |  |  |  | 
5 | COc1cc(OC)cc(C(=O)Nc2cnc(N)nc2)c1 [Compound 10] |  |  | 19.2 ± 0.01 µM | 4.7 ± 0.2 × 10^5 M^−1 | 110000 M⁻¹ | 70.11% | 1.1 ± 0.2 × 10^5 M^−1 | 70000 M⁻¹ | 470000 M⁻¹ | 260000 M⁻¹ |  |  |  |  | 
6 | COc1cccc(C(=O)Nc2cnc(N)nc2)c1 [Compound 11] |  |  | 55.32 ± 0.02 µM | 2.5 ± 0.2 × 10^5 M^−1 | 260000 M⁻¹ | 54.54% | 2.6 ± 0.2 × 10^5 M^−1 | 310000 M⁻¹ | 250000 M⁻¹ | 120000 M⁻¹ |  |  |  |  | 
7 | COc1cc(/C=C/C(=O)Nc2cnc(N)nc2)cc(OC)c1OC [Compound 12] |  |  | 26.01 ± 0.02 µM | 2.1 ± 0.2 × 10^5 M^−1 | 150000 M⁻¹ | 60.11% | 1.5 ± 0.2 × 10^5 M^−1 | 280000 M⁻¹ | 210000 M⁻¹ | 210000 M⁻¹ |  |  |  |  | 
8 | COc1cc(/C=C/C(=O)Nc2ccc(N)cc2)cc(OC)c1OC [Compound 13] |  |  | 0.89 ± 0.07 µM | 3.4 ± 0.2 × 10^5 M^−1 | 400000 M⁻¹ | 49.9% and 49.89% | 4.0 ± 0.2 × 10^5 M^−1 | 290000 M⁻¹ | 340000 M⁻¹ | 190000 M⁻¹ |  |  |  |  | 
9 | COc1cc(NC(=O)/C=C/c2cc(OC)c(OC)c(OC)c2)ccc1N [Compound 14] |  |  | 0.97 ± 0.02 µM | 4.2 ± 0.2 × 10^5 M^−1 | 890000 M⁻¹ | 43.85% | 8.9 ± 0.2 × 10^5 M^−1 | 290000 M⁻¹ | 420000 M⁻¹ | 490000 M⁻¹ |  |  |  |  | 
10 | COc1cc(/C=C/C(=O)Nc2ccc(N)nc2)cc(OC)c1OC [Compound 15] |  |  | 12.01 ± 0.01 µM | 2.4 ± 0.2 × 10^5 M^−1 | 310000 M⁻¹ | 68.82% | 3.1 ± 0.2 × 10^5 M^−1 | 230000 M⁻¹ | 240000 M⁻¹ | 190000 M⁻¹ |  |  |  |  | 
11 | COc1cc(/C=C/C(=O)Nc2ccc(Cl)c(N)c2)cc(OC)c1OC [Compound 16] |  |  | 0.88 ± 0.02 µM | 3.8 ± 0.2 × 10^5 M^−1 | 270000 M⁻¹ | 57.77% | 2.7 ± 0.2 × 10^5 M^−1 | 310000 M⁻¹ | 380000 M⁻¹ | 130000 M⁻¹ |  |  |  |  | 
12 | COc1cc(/C=C/C(=O)Nc2ccc(F)c(N)c2)cc(OC)c1OC [Compound 17] |  |  | 1.22 ± 0.05 µM | 2.5 ± 0.2 × 10^5 M^−1 | 50000 M⁻¹ | 41.68% | 0.5 ± 0.2 × 10^5 M^−1 | 290000 M⁻¹ | 250000 M⁻¹ | 180000 M⁻¹ |  |  |  |  | 
13 | COc1cc(/C=C/C(=O)Nc2ccc(N)c(I)c2)cc(OC)c1OC [Compound 18] |  |  | 2.09 ± 0.04 µM | 4.6 ± 0.2 × 10^5 M^−1 | 450000 M⁻¹ | 42.99% | 4.5 ± 0.2 × 10^5 M^−1 | 640000 M⁻¹ | 460000 M⁻¹ | 580000 M⁻¹ |  |  |  |  | 
14 | CC[n+]1c(-c2ccccc2)c2cc(N)ccc2c2ccc(N)cc21 [EtBr, Ethidium bromide] |  |  |  |  |  | 100% |  |  |  |  | 1e+07 M⁻¹ | 95^b* × 10^5 M^−1 | 1e+07 M⁻¹ | 9.9e+06 M⁻¹ | 
15 | Cn1cc(NC(=O)c2cc(NC(=O)CN=C(N)N)cn2C)cc1C(=O)NCCC(=N)N [NT, netropsin] |  |  | 20.56 ± 0.01 µM |  |  |  |  |  |  |  | 830000 M⁻¹ | 8.75e+07 M⁻¹ | 870000 M⁻¹ | 250000 M⁻¹ | 74%
